Reference: article PMC6272242, “Topical Anti-inflammatory Activity of New Hybrid Molecules of Terpenes and Synthetic Drugs” (Molecules, 2015)

Tests used:
[1] = system: mice ear edema induced by arachidonic acid; test: Topical anti-inflammatory effect, arachidonic acid (AA) induced ear edema in mice; assay type: in vivo; conditions: 3.2 µmol/mouse; for % TAAA ± SEM (percent reduction of the ear edema, arachidonic acid) / inhibition in vivo at 3.2 µmol/animal: 1 h after AA; for % TAAA ± SEM (percent reduction of the ear edema, arachidonic acid): n = 8; for inhibition in vivo at 3.2 µmol/animal: n = 8, read-out: % TAAA ± SEM (percent reduction of the ear edema, arachidonic acid)
Description: (§1) The inflammatory agent arachidonic acid (AA) and phorbol 12-myristate 13-acetate (TPA) were used to assess the anti-inflammatory effect/action mechanism of the starting compounds, new synthetic products and reference drugs. […] Adult male CF-1 mice (20–25 g), obtained from a stock maintained at the Chilean Public Health Institute, were used to assess the anti-inflammatory effect. All animals were housed in a climate- and light-controlled room with a 12 h light-dark cycle, fasted overnight before the day of the assays, with free access to water. The anti-inflammatory activity of each compound was evaluated in groups of 8 treated and 16 control mice. Due to ethical considerations, the number of animals was kept to a minimum and single dose experiments were carried out.
(§2) The pro-inflammatory agents TPA and AA, the reference drugs indomethacin and nimesulide were from Sigma. […] After 5 min, inflammation was induced by the application of 20 µL TPA or AA (5 mg/mL) in acetone. […] Control subjects only received TPA or AA. Both, the sample and the TPA or AA, were applied to the inner (10 µL) and outer (10 µL) surfaces of the right ear. The left ear only received acetone. Mice were sacrificed by cervical dislocation (after 6 h of TPA and 1 h AA), and a 6 mm diameter section of the right and left ears were cut and weighed. The weight differences between both ear sections correspond to the edema value. The percent topical anti-inflammatory activity (TA) was evaluated according to the following equation: (1) %TA=[ Wc−Ws/Wc]× 100 where Wc and Ws are the different median values of the weights of the right and the left ear sections of the control and the treated animals, respectively.
(§3) For the animal experiments all values are presented as median ± SEM. Drug-induced changes were statistically estimated using the Kruskall-Wallis test for comparison between groups and testing, and the Mann-Whitney test was used in the independent data for individual comparisons. The effects were considered significant if p ≤ 0.05. For cytotoxicity experiments, each concentration was tested in quadruplicate together with the control and repeated three times in different experiments. Results are expressed as IC50 values (µM) ± S.D.

hepatocytes HepG2 = test: Cytotoxicity, MTT reduction assay, HepG2; assay type: cell-based; conditions: Homo sapiens, confluent cultures, 24 h, read-out: IC50 ± SD, HepG2
Description: The human cell lines, MRC-5 normal lung fibroblasts (CCL-171), AGS gastric epithelial adenocarcinoma cells (CRL-1739) and HepG2 hepatocellular carcinoma cells (HB-8065) were obtained from the American Type Culture Collection (ATCC, Manasas, VA, USA). The cells were grown as monolayers in the following media: MRC-5 and HepG2 in MEM and AGS in Ham F-12. The MEM medium contained 2 mM L-glutamine, 1 mM sodium pyruvate and 1.5 g/L sodium bicarbonate. Ham F-12 was supplemented with 2 mM L-glutamine and 1.5 g/L sodium bicarbonate. Both media were supplemented with 10% heat inactivated fetal bovine serum, 100 IU/mL penicillin and 100 µg/mL streptomycin in a humidified incubator with 5% CO2 in air at 37 °C. For the experiments, cells were plated at a density of 25,000 cells/mL in 96-well plates. […] Compounds were first dissolved in DMSO and then in medium. The final concentration of DMSO in the test medium and controls was 1%. […] The cell viability for each compound was calculated comparing the cell viability of the untreated controls (100%) with the cell viability of the different concentrations of each compound. Each concentration was tested in quadruplicate together with the control and repeated three times in separate experiments. Cell viability was determined at the end of the incubation by means of the MTT reduction assay. […] Culture media, antibiotics and fetal bovine serum were obtained from Invitrogen Corp. (Waltham, MA, USA). Other reagents were purchased from Sigma Chemical Co. For the animal experiments all values are presented as median ± SEM. Drug-induced changes were statistically estimated using the Kruskall-Wallis test for comparison between groups and testing, and the Mann-Whitney test was used in the independent data for individual comparisons. The effects were considered significant if p ≤ 0.05. For cytotoxicity experiments, each concentration was tested in quadruplicate together with the control and repeated three times in different experiments. Results are expressed as IC50 values (µM) ± S.D.

[2] = system: mice ear edema induced by 12-O-tetradecanoylphorbol 13-acetate; test: Topical anti-inflammatory effect, 12-O-tetradecanoylphorbol 13-acetate (TPA) induced ear edema in mice; assay type: in vivo; conditions: 1.4 µmol/mouse; for % TATPA ± SEM (percent reduction of the ear edema, TPA) / inhibition in vivo at 1.4 µmol/animal: 6 h after TPA; for % TATPA ± SEM (percent reduction of the ear edema, TPA): n = 8; for inhibition in vivo at 1.4 µmol/animal: n = 8, read-out: % TATPA ± SEM (percent reduction of the ear edema, TPA)
Description: as §1, §2, §3

lung fibroblasts (MRC-5) = test: Cytotoxicity, MTT reduction assay, MRC-5; assay type: cell-based; conditions: Homo sapiens, MRC5, confluent cultures, 24 h, read-out: IC50 ± SD, MRC-5
Description: (§4) The human cell lines, MRC-5 normal lung fibroblasts (CCL-171), AGS gastric epithelial adenocarcinoma cells (CRL-1739) and HepG2 hepatocellular carcinoma cells (HB-8065) were obtained from the American Type Culture Collection (ATCC, Manasas, VA, USA). The cells were grown as monolayers in the following media: MRC-5 and HepG2 in MEM and AGS in Ham F-12. The MEM medium contained 2 mM L-glutamine, 1 mM sodium pyruvate and 1.5 g/L sodium bicarbonate. Ham F-12 was supplemented with 2 mM L-glutamine and 1.5 g/L sodium bicarbonate. Both media were supplemented with 10% heat inactivated fetal bovine serum, 100 IU/mL penicillin and 100 µg/mL streptomycin in a humidified incubator with 5% CO2 in air at 37 °C. For the experiments, cells were plated at a density of 25,000 cells/mL in 96-well plates. […] Compounds were first dissolved in DMSO and then in medium. The final concentration of DMSO in the test medium and controls was 1%. […] The cell viability for each compound was calculated comparing the cell viability of the untreated controls (100%) with the cell viability of the different concentrations of each compound. Each concentration was tested in quadruplicate together with the control and repeated three times in separate experiments. Cell viability was determined at the end of the incubation by means of the MTT reduction assay. Results were converted to percentage of controls, and the IC50 values were graphically obtained from the dose-response curves. Culture media, antibiotics and fetal bovine serum were obtained from Invitrogen Corp. (Waltham, MA, USA). Other reagents were purchased from Sigma Chemical Co. For the animal experiments all values are presented as median ± SEM. Drug-induced changes were statistically estimated using the Kruskall-Wallis test for comparison between groups and testing, and the Mann-Whitney test was used in the independent data for individual comparisons. The effects were considered significant if p ≤ 0.05. For cytotoxicity experiments, each concentration was tested in quadruplicate together with the control and repeated three times in different experiments. Results are expressed as IC50 values (µM) ± S.D.

[3] = system: gastric epithelial cells (AGS); test: Cytotoxicity, MTT reduction assay, AGS; assay type: cell-based; conditions: Homo sapiens, Epithelial cell, confluent cultures, 24 h, read-out: IC50 ± SD, AGS
Description: as §4

[4] = system: human lung fibroblasts (MRC-5), gastric epithelial cells (AGS) and hepatocytes HepG2; test: Cytotoxicity, MTT reduction assay, summary over the three cell lines; assay type: cell-based; conditions: for IC50: Homo sapiens, MRC-5, AGS and HepG2, 24 h, MTT, read-out: IC50 values, range over the three cell lines
Description: as §4

Row | Structure (SMILES) | % TAAA ± SEM (percent reduction of the ear edema, arachidonic acid) [1] | inhibition in vivo at 3.2 µmol/animal [1] [%] | IC50 (hepatocytes HepG2) [µM] | % TATPA ± SEM (percent reduction of the ear edema, TPA) [2] | inhibition in vivo at 1.4 µmol/animal [2] [%] | IC50 (lung fibroblasts (MRC-5)) [µM] | IC50 [3] [µM] | IC50 [4] [µM] | Cytotoxic effect, in words ([4]; MRC-5, AGS and HepG2) | Activity in the AA model, in words [1] | Activity in the TPA assay, in words [2]
1 | CC(C)c1cc2c(cc1O)[C@@]1(C)CCCC(C)(C)[C@@H]1CC2 [Compound 1, ferruginol, reference compound] | 21.0 ± 2.1 *^,a % | 21 ± 2.1 | 39 ± 3 | 20.4 ± 3.1 *^,a % | 20.4 ± 3.1 | 31 ± 2 | 29 ± 1 | 29 to 39 | strong |  | 
2 | C=C1CCC2[C@](C)(CCC[C@]2(C)C(=O)OC)[C@H]1CC[C@@H](C)CCOC(=O)[C@@H](C)c1ccc2cc(OC)ccc2c1 (stereo partly shown) [Compound 11, Imbricatol-15-yl naproxenate methyl ester] |  | 20 ± 9.4 | > 1000 |  | 42.7 ± 8.3 | 907 ± 54 | 601 ± 25 | ≥ 601 |  |  | 
3 | COC(=O)[C@]12CCC(C)(C)CC1C1=CCC3[C@@]4(C)CC[C@H](OC(=O)[C@@H](C)c5ccc(CC(C)C)cc5)C(C)(C)C4CC[C@@]3(C)[C@]1(C)CC2 (mixture of isomers) [Compound 13, Oleanoyl ibuprofenate methyl ester] |  | 19.5 ± 9.2 | 742 ± 48 |  | 47.4 ± 2.6 | 402 ± 20 | 454 ± 21 |  |  |  | 
4 | COC(=O)[C@]12CCC(C)(C)CC1C1=CCC3[C@@]4(C)CC[C@H](OC(=O)[C@@H](C)c5ccc6cc(OC)ccc6c5)C(C)(C)C4CC[C@@]3(C)[C@]1(C)CC2 (stereo partly shown) [Compound 15, Oleanoyl naproxenate methyl ester] |  | 2.7 ± 8.1 | > 1000 | 80.0 ± 11.0 % | 80 | 816 ± 42 | 593 ± 31 |  |  |  | 
5 | C=C1CCC2[C@](C)(CCC[C@]2(C)C(=O)O)[C@H]1CC[C@@H](C)CCOC(=O)[C@@H](C)c1ccc2cc(OC)ccc2c1 (stereo partly shown) [Compound 10, Imbricatol-15-yl naproxenate] |  | 16.3 ± 3.8 | 69 ± 4 |  | 37.7 ± 3.3 | 37 ± 2 | 29 ± 2 | 29 to 69 |  |  | 
6 | COc1ccc2cc([C@H](C)C(=O)O)ccc2c1 [Compound 5, naproxen, reference compound] |  |  |  |  | 29.9 ± 6.2 | > 1000 | > 1000 |  |  | inactive | 
7 | COc1ccc2c(c1)c(CC(=O)O)c(C)n2C(=O)c1ccc(Cl)cc1 [Indomethacin, reference compound] |  |  |  | ↑92.9 ± 13.2 % | 92.9 |  |  |  |  |  | 
8 | COc1cc([C@@H]2c3cc4c(cc3[C@@H](O[C@@H]3O[C@@H]5CO[C@@H](C)O[C@H]5[C@H](O)[C@H]3O)[C@H]3COC(=O)[C@H]23)OCO4)cc(OC)c1O [Etoposide, reference compound] |  |  | 2.4 ± 0.1 |  |  | 3.9 ± 0.1 | 0.36 ± 0.02 |  |  |  | 
9 | CC(C)Cc1ccc([C@H](C)C(=O)O[C@H]2CC[C@@]3(C)C(CC[C@]4(C)C3CC=C3C5CC(C)(C)CC[C@]5(C(=O)O)CC[C@]34C)C2(C)C)cc1 (mixture of isomers) [Compound 12, Oleanoyl ibuprofenate] | 56.8 ± 7.4 % | 56.8 | > 1000 | 79.9 ± 10.6 % | 79.9 | 616 ± 32 | 526 ± 19 |  |  | significant effect | 
10 | CS(=O)(=O)Nc1ccc([N+](=O)[O-])cc1Oc1ccccc1 [Nimesulide, reference compound] | ↑48.9 ± 5.5 % | 48.9 |  |  |  |  |  |  |  |  | 
11 | COc1ccc2cc([C@H](C)C(=O)O[C@H]3CC[C@@]4(C)C(CC[C@]5(C)C4CC=C4C6CC(C)(C)CC[C@]6(C(=O)O)CC[C@]45C)C3(C)C)ccc2c1 (stereo partly shown) [Compound 14, Oleanoyl naproxenate] |  | 9 ± 11.3 | > 1000 |  | 55.5 ± 5.1 | 554 ± 22 | 486 ± 26 |  |  |  | 
12 | CC1(C)CC[C@]2(C(=O)O)CC[C@]3(C)C(=CC[C@@H]4[C@@]5(C)CC[C@H](O)C(C)(C)[C@@H]5CC[C@]43C)[C@@H]2C1 [Compound 3, oleanolic acid, reference compound] |  | 2.7 ± 7.5 | 170 ± 5 | 70.2 ± 8.3 *^,a % | 70.2 ± 8.3 | 186 ± 9 | 234 ± 16 |  |  | inactive | active
